# PMC12011786, “Pharmacokinetics and stability of methoxyflavones from Kaempferia parviflora in Thai native roosters” (Frontiers in Veterinary Science, 2025)
# Read-outs that look alike come from different tables or passages of the source.
# Experiment: Pharmacokinetics of methoxyflavones after single oral administration of KP ethanolic extract in roosters
# Format: in vivo, Thai native roosters (Pradu Hang Dum breed)
# Conditions: for AUC / Cmax / Tmax / half-life / k el: male, Thai native Pradu Hang Dum, whole blood; for AUC: po; for Cmax / Tmax / half-life / Cl / Vd: n = 9; for k el: n = 9, read-out: Ke (converted)
# Procedure: Twenty-seven male Thai native Pradu Hang Dum breed roosters were selected for this study. The sample size was calculated by using the G*power program with the following parameters: α = 0.05, power of test = 0.8, standard deviation = 0.05, and effect size = 0.6. The sample size was nine in each group. […] All animals were obtained from the Research and Development Network Center of Animal Breeding and Omics at Khon Kaen University, Thailand. The roosters were housed in separate cages (60 × 45 × 45 cm) within an open-house system. They were fed a daily commercial diet of 130 g, containing 16% crude protein. Water was provided ad libitum throughout the study.
# Blood samples (1 mL) were collected from the brachial vein of each rooster after gentle restraint. The collected blood was immediately transferred into a 1.5 mL microtube containing 10% heparin and gently inverted several times to ensure thorough mixing and prevent clot formation.
# The roosters were randomly divided into three groups (n = 9 per group) and orally administered KP extract at different doses: 100, 150, and 200 mg/kg of body weight. The KP extract was prepared by dissolving in a solution of 28% propylene glycol, 35% polyethylene glycol 400, 2% ethanol, and deionized water (added until the total volume was 100%). For the method of animal administration, two individuals administered the KP extract to the chickens. One person restrained each chicken by holding its wings and legs, while the other administered the extract orally via a 10 mL syringe, according to body weight.
# After oral administration, blood samples were collected at certain time intervals (0.5, 1, 2, 4, 6, and 12 h). The samples were then stored at −20°C until further analysis.
# To extract methoxyflavones from the blood samples, all samples were extracted by liquid–liquid extraction two times using acetonitrile. Each sample was vortexed for 2 min and sonicated for 5 min with 1 mL of acetonitrile. After centrifugation at 2,000 × g for 2 min, the supernatant was transferred to clean microtubes, evaporated to dryness, and reconstituted with 200 μL of methanol. The samples were then filtered through 0.45-μm syringe filters and analyzed using an HPLC assay. Pharmacokinetic parameters were determined using the PKSolver add-in program ([21]).
# [1] = 100 mg/kg, single oral KP extract 100 mg/kg, blood, n = 9, read-out: AUC
# [2] = 150 mg/kg, single oral KP extract 150 mg/kg, blood, n = 9, read-out: AUC
# [3] = 200 mg/kg, range over oral KP extract doses 100, 150, 200 mg/kg, read-out: area under the curve (AUC)
# [4] = 200 mg/kg, single oral KP extract 200 mg/kg, blood, n = 9, read-out: AUC
# [5] = single oral KP extract 100 mg/kg, blood
# [6] = single oral KP extract 150 mg/kg, blood
# [7] = single oral KP extract 200 mg/kg, blood
SMILES,AUC [1],AUC [2],AUC [3],AUC [4],Cmax [5],Tmax [5],half-life [5],k el [5],Cmax [6],Tmax [6],half-life [6],k el [6],Cmax [7],Tmax [7],half-life [7],k el [7],Cl [5],Vd [5],Cl [6],Vd [6],also measured
"COc1cc(OC)c2c(=O)c(OC)c(-c3ccc(OC)c(OC)c3)oc2c1 [PMF, 3,5,7,3′,4′-pentamethoxyflavone]",2620 ± 340 ng·h/mL,3010 ± 420 ng·h/mL,2620 to 3060 ng·h/mL,3060 ± 570 ng·h/mL,640 ± 60 ng/mL,1.83 ± 0.37 h,2.03 ± 0.34 h,9.72e-05 s⁻¹,810 ± 120 ng/mL,1.8 ± 0.4 h,2.24 ± 0.71 h,0.000111 s⁻¹,830 ± 110 ng/mL,1.83 ± 0.37 h,2.27 ± 0.93 h,0.000114 s⁻¹,41 ± 7 mL/min/kg,7.78 ± 0.63 L/kg,47.2 ± 12.7 mL/min/kg,8.24 ± 1.14 L/kg,Cl [7]: 53.7 ± 8.67 mL/min/kg; Vd [7]: 8.69 ± 1.25 L/kg
"COc1ccc(-c2cc(=O)c3c(OC)cc(OC)cc3o2)cc1 [TMF, 5,7,4′-trimethoxyflavone]",1200 ± 150 ng·h/mL,1360 ± 150 ng·h/mL,1200 to 1450 ng·h/mL,1450 ± 120 ng·h/mL,380 ± 90 ng/mL,1.25 ± 0.56 h,2.15 ± 0.71 h,8.33e-05 s⁻¹,530 ± 60 ng/mL,1.25 ± 0.4 h,2.01 ± 0.31 h,9.44e-05 s⁻¹,590 ± 60 ng/mL,1.33 ± 0.47 h,2.03 ± 0.37 h,0.000103 s⁻¹,76.3 ± 9.83 mL/min/kg,17.8 ± 5.61 L/kg,97.3 ± 11.2 mL/min/kg,20 ± 3.32 L/kg,Cl [7]: 82.5 ± 26.3 mL/min/kg; Vd [7]: 12.7 ± 1.73 L/kg
"COc1cc(OC)c2c(=O)cc(-c3ccccc3)oc2c1 [DMF, 5,7-dimethoxyflavone]",1020 ± 230 ng·h/mL,1450 ± 170 ng·h/mL,1020 to 1680 ng·h/mL,1680 ± 570 ng·h/mL,340 ± 100 ng/mL,1.17 ± 0.37 h,2.56 ± 0.49 h,7.78e-05 s⁻¹,500 ± 50 ng/mL,1.33 ± 0.49 h,2.57 ± 0.2 h,8.33e-05 s⁻¹,540 ± 80 ng/mL,1.17 ± 0.37 h,2.6 ± 0.28 h,9.17e-05 s⁻¹,137 ± 29.7 mL/min/kg,18.9 ± 1.78 L/kg,120 ± 27.7 mL/min/kg,19.1 ± 1.78 L/kg,Cl [7]: 123 ± 36.8 mL/min/kg; Vd [7]: 19.5 ± 2.28 L/kg
